This note sets out measurements from US20050186144A1, “Treatment methods” (SCHERING CORPORATION, priority 2004, published 2005).

Data set [1] is described as follows: Phase-2 double-blind, randomized, placebo-controlled study in acute rhinosinusitis. In kind it is in vivo, human. The note with it: Amoxicillin 500 mg three times a day. The protocol: A Phase-2, dose-ranging, double-blind, double-dummy, randomized, multi-center, multi-national study with 4 parallel groups was carried out. There were three treatment regimens: Mometasone Furoate Nasal Spray 200 μg was administered once a day; Mometasone Furoate Nasal Spray 200 μg also was administered twice a day; Amoxicillin 500 mg was administered three times a day. All three were administered against placebo. The regimens were administered to subjects 12 years of age or older with acute rhinosinusitis that was clinically diagnosed with symptoms present for 7 days or more and 28 days or less. Subjects with a major symptom score (sum of symptoms—facial pain, rhinorrhea, post nasal drip, sinus headache, nasal congestion—each scored 0—none-to 3—severe) greater than or equal to 5 and less than or equal to 12 at baseline with less than or equal to 3 symptoms scored severe were included. Subjects with a bacterial rhinosinusitis suspected on the presence of fever greater than or equal to 101° F./38.3° C., persistent severe unilateral facial pain/tooth pain, orbital or peri-orbital facial swelling, dental involvement; and/or worsening symptoms after initial improvement were excluded from the study. The primary efficacy variable of the study was the actual major symptom score (averaged daily for AM and PM assessments over 15 days of treatment). […]

Data set [2] can be described thus: Systemic effect of intranasal mometasone furoate (HPLC metabolite profiling of plasma radioactivity, first-pass metabolism, cortisol secretion). In kind it is in vivo. As to conditions: administered intranasally.

`CC1(C)S[C@@H]2[C@H](NC(=O)[C@H](N)c3ccc(O)cc3)C(=O)N2[C@H]1C(=O)O` [Amoxicillin]: in data set [1] (p=0.275), the “major symptom score, efficacy vs. placebo” value is “not different from placebo”. The recurrence rate in data set [1] (follow-up phase (14 days), MFNS 200 μg twice a day) is recorded as 8%.

For `C[C@@H]1C[C@H]2[C@@H]3CCC4=CC(=O)C=C[C@]4(C)[C@@]3(Cl)[C@@H](O)C[C@]2(C)[C@@]1(OC(=O)c1ccco1)C(=O)CCl` [mometasone furoate, Mometasone furoate], in data set [2], the “first-pass metabolism in the liver” value was above 98% and the “reduction in cortisol secretion levels” value was “minimal reduction”.
